From US10081602B2, “Opioid agonists and uses thereof” (Nektar Therapeutics, priority 2013, dated 2018) come the findings set out here.

Molecules are shown by their SMILES. Several values for one entry are separate records, joined by “and”; a condition that tells them apart may be missing. Equal values may be shown once.

For data set [1], the target named is human mu (MOR) opioid receptor (Homo sapiens (Human), UniProt P35372). The data set can be described thus: Radioligand competition binding assay, mu opioid receptor. The note with it: 10 uM, [3H]Naloxone; read-out: Mu receptor % inhibition at single concentration. As for the experimental part: The binding affinities of certain compounds of the present invention were evaluated using radioligand binding assays in membranes prepared from CHO-K1 cells expressing recombinant human kappa (KOR) or mu (MOR) opioid receptors.
Competition binding experiments were conducted by incubating membrane protein to equilibrium in triplicate in the presence of a fixed concentration of radioligand and increasing concentrations of test compound for evaluation of binding to KOR or single concentration (10 μM) of test compound for evaluation of binding to MOR in 101 μL final volume. The radioligands used were specific for each receptor type, and the assay conditions are described in Table 1. Following incubations, the membranes were rapidly filtered through GF/B filter plate (presoaked with 0.5% polyethyleneimine), washed five times with cold 50 mM Tris-HCl, pH 7.5, and the bound radioactivity was then measured by liquid scintillation counting. Non-specific binding was measured in the presence of excess ligand; this value was subtracted from the total binding to yield the specific binding at each test concentration.
Ki (affinity of test compound) was obtained using the Cheng Prusoff correction using experimental Kd (affinity of radioligand) values that were previously determined under these assay conditions. For MOR binding, compounds were tested at one concentration, 10 μM, to evaluate its ability to inhibit specific radioligand binding. The values are expressed as percent inhibition of specific binding and greater than 50% inhibition of binding was considered to be significant.
With respect to determining MOR binding, an approach similar to one used for KOR binding was used.

Data set [2] deals with acetic acid-induced writhing (visceral pain) in mice. The data set can be described thus: Acetic acid writhing (AAW) analgesic assay. The class given is in vivo. How it is done:
An analgesic assay was used to determine whether a given compound can reduce and/or prevent visceral pain in mice. The assay utilizes Swiss Albino or CD-1 male mice (5-10 mice per group), each mouse being approximately 0.015-0.030 kg on the study day. Mice were treated according to standard protocols.
The animal was given an intraperitoneal (IP) injection of an irritant (acetic acid) that induces “writhing” which may include: contractions of the abdomen, twisting and turning of the trunk, arching of the back and the extension of the hindlimbs. Mice are given a single IP injection (0.1 mL/10 g bodyweight) of a 0.5% acetic acid solution. After the injection the animals were returned to their observation enclosure and their behavior was observed. Contractions were counted between 0 and 20 minutes after the injection. The animals were used once. In certain instances, the test articles were administered at multiple doses to determine a dose response curve.
Table 4 provides the results for certain compounds of the present invention that were administered subcutaneously. Table 5 provides the results for certain compounds of the present invention that were administered orally.

The subject of data set [3] is locomotor activity of mice. The data set is described as follows: Locomotor activity. The note with it: oral, 30 min predose, 20 min observation. The class given is in vivo. As for the experimental part:
Male Swiss Albino mice were treated orally with vehicle (0.5% HPMC+0.1% Tween80), ketazocine, Compound 12 (0.3, 3 and 30 mg/kg) or Compound 20 (0.3, 3 and 30 mg/kg) thirty minutes prior to placement in the locomotor activity chamber. Total distance travelled was measured over the twenty minute observation time following placement in the locomotor activity chamber. Data are normalized relative to percent distance travelled in the vehicle group. The efficacy of Compound 12 (reported as percent distance travelled in comparison to vehicle) was 88.85%, 83.74% and 0.08% at 0.3, 3 and 30 mg/kg dosages, respectively, while the locomotor activity of Compound 20 (reported as percent distance travelled in comparison to vehicle) was 100%, 88% and 0.03% at 0.3, 3 and 30 mg/kg dosages, respectively.

Consider `COCCOCCOCCOCCOCCNc1ccc2c(c1)[C@]1(C)CCN(CC3CC3)[C@H](C2=O)[C@@H]1C` [Example 2, (2S,6R,11R)-3-(Cyclopropylmethyl)-6,11-dimethyl-8-(2,5,8,11,14-pentaoxahexadecan-16-ylamino)-3,4,5,6-tetrahydro-2,6-methano-3-benzazocin-1(2H)-One], for which, in data set [1], the inhibition at 10 µM came to 85.5%.
`COCCOCCOCCOCCOCCOc1ccccc1Nc1ccc2c(c1)[C@]1(C)CCN(CC3CC3)[C@H](C2=O)[C@@H]1C` [Example 7, (2S,6R,11R)-8-((2-(2,5,8,11,14-pentaoxahexadecan-16-yloxy)phenyl)amino)-3-(cyclopropylmethyl)-6,11-dimethyl-3,4,5,6-tetrahydro-2,6-methanobenzo[d]azocin-1(2H)-one]: the “AAW % Efficacy” value is reported as 38.8% in data set [2] (subcutaneous, 3 mg/kg) and 84.8% in data set [2] (subcutaneous, 30 mg/kg).
For the compound `COCCOCCOCCOCCOCCOc1cccc(Nc2ccc3c(c2)[C@]2(C)CCN(CC4CC4)[C@H](C3=O)[C@@H]2C)c1` [Example 8, (2S,6R,11R)-8-((3-(2,5,8,11,14-pentaoxahexadecan-16-yloxy)phenyl)amino)-3-(cyclopropylmethyl)-6,11-dimethyl-3,4,5,6-tetrahydro-2,6-methanobenzo[d]azocin-1(2H)-one], the inhibition in vivo at 30 mg/kg in data set [2] (Mus musculus, sc, subcutaneous, 30 mg/kg, read-out: AAW % Efficacy) amounted to 100%. Also, the “AAW % Efficacy” value in data set [2] (subcutaneous, 3 mg/kg) is 38.0%.
Consider `COCCOCCOCCOCCOCCOc1ccc(Nc2ccc3c(c2)[C@]2(C)CCN(CC4CC4)[C@H](C3=O)[C@@H]2C)cc1` [Example 9, (2S,6R,11R)-8-((4-(2,5,8,11,14-pentaoxahexadecan-16-yloxy)phenyl)amino)-3-(cyclopropylmethyl)-6,11-dimethyl-3,4,5,6-tetrahydro-2,6-methanobenzo[d]azocin-1(2H)-one], for which the “AAW % Efficacy” value in data set [2] (oral, 10 mg/kg) is 38.5%; in data set [2] (subcutaneous, 0.3 mg/kg) it was 13.3%; in data set [2] (subcutaneous, 3 mg/kg), 67.8% and 61.4%; in data set [2] (subcutaneous, 10 mg/kg) it was 95.4%; in data set [2] (subcutaneous, 30 mg/kg) it was 99.2%.
`COCCOCCOCCOCCOCCNc1ccc(Nc2ccc3c(c2)[C@]2(C)CCN(CC4CC4)[C@H](C3=O)[C@@H]2C)cc1` [Example 10, (2S,6R,11R)-8-((4-(2,5,8,11,14-pentaoxahexadecan-16-ylamino)phenyl)amino)-3 (cyclopropylmethyl)-6,11-dimethyl-3,4,5,6-tetrahydro-2,6-methanobenzo[d]azocin-1(2H)-one]: the “AAW % Efficacy” value is recorded as 34.0% in data set [2] (subcutaneous, 3 mg/kg) and 100.0% in data set [2] (subcutaneous, 30 mg/kg).
With `COCCOCCOCCOCCOCCNc1cccc(Nc2ccc3c(c2)[C@]2(C)CCN(CC4CC4)[C@H](C3=O)[C@@H]2C)c1` [Example 11, (2S,6R,11R)-8-((3-(2,5,8,11,14-pentaoxahexadecan-16-ylamino)phenyl)amino)-3-(cyclopropylmethyl)-6,11-dimethyl-3,4,5,6-tetrahydro-2,6-methanobenzo[d]azocin-1(2H)-One], the “AAW % Efficacy” value in data set [2] (oral, 10 mg/kg) was 31.2%; in data set [2] (subcutaneous, 0.3 mg/kg), 21.1%; in data set [2] (subcutaneous, 3 mg/kg), 62.2% and 64.3%; in data set [2] (subcutaneous, 10 mg/kg), 99.1%; in data set [2] (subcutaneous, 30 mg/kg), 100.0%.
On to `COCCOCCOCCOCCOCCNc1ccc(Nc2ccc3c(c2)[C@]2(C)CCN(CC4CC4)[C@H](C3=O)[C@@H]2C)cc1` [Example 12, (2S,6R,11R)-8-((4-(2,5,8,11,14-pentaoxahexadecan-16-ylamino)phenyl)amino)-3-(cyclopropylmethyl)-6,11-dimethyl-3,4,5,6-tetrahydro-2,6-methanobenzo[d]azocin-1(2H)-one], for which the “percent distance travelled in comparison to vehicle” value in data set [3] (0.3 mg/kg) was 88.85%; in data set [3] (3 mg/kg) it was 83.74%; in data set [3] (30 mg/kg), 0.08%. The “AAW % Efficacy” value in data set [2] (oral, 0.1 mg/kg) was 22.5%; in data set [2] (oral, 1 mg/kg) it was 56.9%; in data set [2] (oral, 10 mg/kg), 97.2% and 90.2%; in data set [2] (subcutaneous, 30 mg/kg), 100.0%.
As for `COCCOCCOCCOCCOCCNc1nc2cc3c(cc2s1)C(=O)[C@@H]1[C@H](C)[C@@]3(C)CCN1CC1CC1` [Example 13, (6S,10R,12R)-2-(2,5,8,11,14-pentaoxahexadecan-16-ylamino)-7-(cyclopropylmethyl)-10,12-dimethyl-7,8,9,10-tetrahydro-6,10-methanothiazolo[4′,5′:4,5]benzo[1,2-d]azocin-5(6H)-one], in data set [2] (subcutaneous, 10 mg/kg), the “AAW % Efficacy” value is 40.2%.
Still for that read-out and setting: in the case of `COCCOCCN1CC[C@@]2(C)c3cc(O)ccc3C(=O)[C@@H]1[C@@H]2C` [Example 14, (2S,6R,11R)-8-hydroxy-3-(2-(2-methoxyethoxy)ethyl)-6,11-dimethyl-3,4,5,6-tetrahydro-2,6-methanobenzo[d]azocin-1(2H)-One] it was 13.2%; in that of `COCCOCC(=O)Nc1ccc2c(c1)[C@]1(C)CCN(CC3CC3)[C@H](C2=O)[C@@H]1C` [Example 15, N-((2S,6R,11R)-3-(cyclopropylmethyl)-6,11-dimethyl-1-oxo-1,2,3,4,5,6-hexahydro-2,6-methanobenzo[d]azocin-8-yl)-2-(2-methoxyethoxy)acetamide], 100.0%.
On the same count and under the same terms, under `COCCNC(=O)c1ccc2c(c1)[C@]1(C)CCN(CC3CC3)[C@H](C2=O)[C@@H]1C` [Example 16, (2S,6R,11R)-3-(cyclopropylmethyl)-N-(2-methoxyethyl)-6,11-dimethyl-1-oxo-1,2,3,4,5,6-hexahydro-2,6-methanobenzo[d]azocine-8-carboxamide] stands 26.4%; under `COCCOCC(=O)NCc1ccc2c(c1)[C@]1(C)CCN(CC3CC3)C(C2=O)[C@@H]1C` [Example 17, N,N-(((2S,6R,11R)-3-(cyclopropylmethyl)-6,11-dimethyl-1-oxo-1,2,3,4,5,6-hexahydro-2,6-methanobenzo[d]azocin-8-yl)methyl)-2-(2-methoxyethoxy)acetamide], 23.3%; under `COCCOCCNCc1ccc2c(c1)[C@]1(C)CCN(CC3CC3)[C@H](C2=O)[C@@H]1C` [Example 18, (2S,6R,11R)-3-(cyclopropylmethyl)-8-(((2-(2-methoxyethoxy)ethyl)amino)methyl)-6,11-dimethyl-3,4,5,6-tetrahydro-2,6-methanobenzo[d]azocin-1(2H)-one], 31.9%.
Consider `COCCOCCOCCOCCOCCOc1c(O)ccc2c1[C@]1(C)CCN(CC3CC3)[C@H](C2=O)[C@@H]1C` [Example 19, (2S,6R,11R)-7-(2,5,8,11,14-pentaoxahexadecan-16-yloxy)-3-(cyclopropylmethyl)-8-hydroxy-6,11-dimethyl-3,4,5,6-tetrahydro-2,6-methanobenzo[d]azocin-1(2H)-one], for which the “AAW % Efficacy” value in data set [2] (subcutaneous, 10 mg/kg) was 31.6%.
As to `C[C@H]1[C@H]2C(=O)c3ccc(Nc4ccc(NCCOCCOCCOCCOCCOC(F)(F)F)cc4)cc3[C@]1(C)CCN2CC1CC1` [Example 20, (2S,6R,11R)-3-(cyclopropylmethyl)-6,11-dimethyl-8-((4-((1,1,1-trifluoro-2,5,8,11,14-pentaoxahexadecan-16-yl)amino)phenyl)amino)-3,4,5,6-tetrahydro-2,6-methanobenzo[d]azocin-1(2H)-One], the results for the “percent distance travelled in comparison to vehicle” value in data set [3] (0.3 mg/kg), in data set [3] (3 mg/kg) and in data set [3] (30 mg/kg) were 100%, 88% and 0.03%, respectively. Further, the “AAW % Efficacy” value in data set [2] (oral, 0.3 mg/kg) is 39.1%; in data set [2] (oral, 3 mg/kg), 79.5%; in data set [2] (oral, 30 mg/kg), 100.0%; in data set [2] (subcutaneous, 10 mg/kg) it was 88.1%.
Take `C[C@H]1[C@H]2C(=O)c3cc4sc(N)nc4cc3[C@]1(C)CCN2CC1CC1` [Step 1 of 13, (6S,10R,12R)-2-amino-7-(cyclopropylmethyl)-10,12-dimethyl-7,8,9,10-tetrahydro-6,10-methanothiazolo[4′,5′:4,5]benzo[1,2-d]azocin-5(6H)-One]: the “AAW % Efficacy” value in data set [2] (subcutaneous, 10 mg/kg) is given as 100%.
